In US20070037799A1, “Fungicide ternary active ingredient combinations” (Bayer Cropscience Aktiengesellschaft, priority 2003, published 2007):

System: Erysiphe graminis f. sp. Tritici
Assay: Erysiphe test (wheat)/curative
Type: in vivo, Erysiphe graminis f. sp. Tritici on wheat
Settings: curative, sprayed 48 hours after inoculation, application rate 50 g/ha of each active compound, evaluation 8 days after inoculation, 0% = control, 100% = no infection
Procedure: The efficacy here is determined in %. 0% denotes an efficacy which corresponds to that of the control, while an efficacy of 100% means that no infection is observed.
To produce a suitable preparation of active compound, 1 part by weight of active compound or active compound combination is mixed with the stated amounts of solvent and emulsifier, and the concentrate is diluted with water to the desired concentration.
To test for curative activity, young plants are dusted with spores of Erysiphe graminis f. sp. Tritici. 48 hours after the inoculation, the plants are sprayed with the preparation of active compound at the stated application rate.
The plants are placed in a greenhouse at a temperature of about 20° C. and a relative atmospheric humidity of about 80% to promote the development of mildew pustules.
Evaluation is carried out 8 days after the inoculation. 0% means an efficacy which corresponds to that of the control, whereas an efficacy of 100% means that no infection is observed.

SMILES	Efficacy in % found (activity found)
CON=C(C1=NOCCO1)c1ccccc1Oc1ncnc(Oc2ccccc2Cl)c1F [(I) fluoxastrobin, 3-[1-[2-(4-<2-chlorophenoxy>-5-fluoropyrimid-6-yloxy)phenyl]-1-(methoximino)methyl]-5,6-dihydro-1,4,2-dioxazine]	11%
CC(C)(C)C(O)(CCc1ccc(Cl)cc1)Cn1cncn1 (stereo not drawn) [(III) tebucinazole, tebucinazole]	22%
OC(Cc1ccccc1Cl)(Cn1nc[nH]c1=S)C1(Cl)CC1 (stereo not drawn) [(II) prothioconazole, prothioconazole]	0%
